The values below come from ChEMBL document CHEMBL3621125, “Click-tailed coumarins with potent and selective inhibitory action against the tumor-associated carbonic anhydrases IX and XII” (Bioorg Med Chem, 2015).

Bounds are passed on as bounds.

The target in one test is Carbonic anhydrase 2 (Homo sapiens, UniProt P00918). Put plainly: Inhibition of human carbonic anhydrase 2 incubated for 6 hrs by stopped flow carbon-di-oxide hydrase assay.
A further test deals with Carbonic anhydrase 9 (Homo sapiens, UniProt Q16790). Put plainly: Inhibition of human carbonic anhydrase 9 incubated for 6 hrs by stopped flow carbon-di-oxide hydrase assay.
In the next test the target is Carbonic anhydrase 1 (Homo sapiens, UniProt P00915). Kind of test: Inhibition of human carbonic anhydrase 1 incubated for 6 hrs by stopped flow carbon-di-oxide hydrase assay.
Chain of Carbonic anhydrase 1 (P00915 whole entry): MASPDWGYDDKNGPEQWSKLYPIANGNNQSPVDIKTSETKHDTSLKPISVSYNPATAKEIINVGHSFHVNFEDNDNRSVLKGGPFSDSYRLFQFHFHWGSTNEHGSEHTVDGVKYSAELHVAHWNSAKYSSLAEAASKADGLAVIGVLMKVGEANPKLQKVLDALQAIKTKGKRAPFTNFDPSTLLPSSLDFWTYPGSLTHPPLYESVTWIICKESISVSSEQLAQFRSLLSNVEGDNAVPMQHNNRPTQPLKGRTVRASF

As usually defined, the Ki is a measure of affinity in units of concentration, obtained from inhibition or displacement. Higher therefore signals lower affinity. Regarding `Cc1cc(=O)oc2cc(-n3cc(COc4ccccc4)nn3)ccc12`, the Ki on Carbonic anhydrase 2 is greater than 10000 nM; on Carbonic anhydrase 9, 33.1 nM.
For the compound `COc1cccc(-n2cc(COc3ccc4ccc(=O)oc4c3)nn2)c1`, the inhibition constant (Ki) was greater than 10000 nM on Carbonic anhydrase 2 and 23.6 nM on Carbonic anhydrase 9.
Take `O=c1ccc2ccc(OCc3cn(-c4ccccc4)nn3)cc2o1`: the figures for the inhibition constant Ki at Carbonic anhydrase 1, on Carbonic anhydrase 2 and on Carbonic anhydrase 9 were greater than 10000 nM, greater than 10000 nM and 24.5 nM, respectively.
`O=c1ccc2ccc(OCc3cn(-c4cccc(Br)c4)nn3)cc2o1`: the Ki on Carbonic anhydrase 1 was greater than 10000 nM; at Carbonic anhydrase 2 it was greater than 10000 nM; on Carbonic anhydrase 9, 27.5 nM.
For the compound `O=C(O)c1ccc(-n2cc(COc3ccc4ccc(=O)oc4c3)nn2)cc1`, the Ki turned out to be 99.6 nM at Carbonic anhydrase 2 and 28.8 nM on Carbonic anhydrase 9.
As to `O=c1ccc2ccc(OCc3cn(-c4cccc(F)c4)nn3)cc2o1`, the results for the Ki at Carbonic anhydrase 2 and at Carbonic anhydrase 9 were greater than 10000 nM and 24.9 nM, respectively.
Consider `O=c1ccc2ccc(OCc3cn(-c4ccc(F)cc4)nn3)cc2o1`, for which the Ki at Carbonic anhydrase 2 is greater than 10000 nM; at Carbonic anhydrase 9 it was 24 nM.
As for `O=c1ccc2ccc(OCc3cn(-c4cccc(Cl)c4)nn3)cc2o1`, the inhibitory constant (Ki) at Carbonic anhydrase 1 is greater than 10000 nM; at Carbonic anhydrase 2, greater than 10000 nM; on Carbonic anhydrase 9, 31.2 nM.
`O=c1ccc2ccc(OCc3cn(-c4ccc(C(F)(F)F)cc4)nn3)cc2o1` yielded a Ki on Carbonic anhydrase 2 greater than 10000 nM.
For the compound `Cc1cc(=O)oc2cc(-n3cc(COc4ccc5ccc(=O)oc5c4)nn3)ccc12`, the Ki was greater than 10000 nM at Carbonic anhydrase 1, greater than 10000 nM at Carbonic anhydrase 2 and 22.8 nM on Carbonic anhydrase 9.
Consider `Cc1cc(=O)oc2cc(-n3cc(CNc4ccccc4)nn3)ccc12`, for which the Ki is 9740 nM on Carbonic anhydrase 2 and 34.4 nM on Carbonic anhydrase 9.
As to `O=c1ccc2ccc(OCc3cn(-c4ccc(O)cc4)nn3)cc2o1`, the values for the Ki on Carbonic anhydrase 2 and on Carbonic anhydrase 9 were greater than 10000 nM and 26.9 nM, respectively.
Consider `NS(=O)(=O)c1ccc(-n2cc(COc3ccc4ccc(=O)oc4c3)nn2)cc1`, for which the inhibition constant (Ki) was greater than 10000 nM at Carbonic anhydrase 2 and 14.3 nM on Carbonic anhydrase 9.
The compound `Cc1cc(=O)oc2cc(-n3cc(CSc4ccccc4)nn3)ccc12` displayed a Ki on Carbonic anhydrase 2 greater than 10000 nM.
